Reference: patent publication US11465987B2, “Compounds for treatment of cancer” (ONCTERNAL THERAPEUTICS, INC., priority 2012, dated 2022)
Read-outs that look alike come from different tables or passages of the source.

Tests used:
[1] = test system: WM-164 human melanoma cell line; test: Cytotoxicity (SRB) assay, WM-164; type: cell-based; conditions: read-out: IC50 ± SEM, WM164 (converted)
[2] = test system: PC-3 human prostate cancer cell line; test: cells
Source text: (§1) Cells were stained with SRB solution.

[3] = test system: B16-F1 mouse melanoma cell line; test: Cytotoxicity (SRB) assay, B16-F1; type: cell-based; conditions: read-out: IC50 ± SEM, B16-F1 (converted)
[4] = test system: melanoma and prostate cancer cell lines; test: Antiproliferative activity summarised over the cell line panel (range or average); type: cell-based
[5] = test system: A375 human melanoma cell line; test: Cytotoxicity (SRB) assay, A375; type: cell-based; conditions: read-out: IC50 ± SEM, A375 (converted)
[6] = test system: PPC-1 human prostate cancer cell line; test: Cytotoxicity (SRB) assay, PPC-1; type: cell-based
Source text: as §1

[7] = test system: DU 145 human prostate cancer cell line; test: Cytotoxicity (SRB) assay, DU 145; type: cell-based
Source text: as §1

[8] = test system: LNCaP human prostate cancer cell line; test: Cytotoxicity (SRB) assay, LNCaP; type: cell-based
Source text: as §1

[9] = Homo sapiens, read-out: IC50 ± SEM, PC-3, Table 12
[10] = Homo sapiens, read-out: IC50 ± SEM, PC-3, Table 6A
[11] = Homo sapiens, PPC-1, Table 6A, read-out: IC50 ± SEM, PPC-1 (converted)
[12] = Homo sapiens, DU-145, Table 6A, read-out: IC50 ± SEM, DU 145
[13] = Homo sapiens, LNCaP, Table 6A, read-out: IC50 ± SEM, LNCaP (converted)

For COc1cc(C(=O)c2c[nH]c(-c3ccc(N(C)C)cc3)n2)cc(OC)c1OC [12ga, (2-(4-(dimethylamino)phenyl)-1H-imidazol-4-yl)(3,4,5-trimethoxyphenyl)methanone], the IC50 ([1]; Homo sapiens, WM164, Table 12) was 0.08 µM, the IC50 [2, 9] was 0.092 µM and the IC50 ([3]; Mus musculus, B16-F1, Table 12) was 0.361 µM. It also gave an IC50 ([4]; read-out: IC50 (range over tested cell lines)) of 0.0079 to 0.11 µM and an IC50 ([5]; Homo sapiens, A-375, Table 12) of 0.082 µM.

For COc1ccc(-c2nc(C(=O)c3ccc(F)cc3)c[nH]2)cc1OC [12hb, (2-(3,4-dimethoxyphenyl)-1H-imidazol-4-yl)(4-fluorophenyl)methanone], the IC50 ([1]; Homo sapiens, WM164, Table 12) was 1.4 µM, the IC50 [2, 9] was 10 µM and the IC50 ([3]; Mus musculus, B16-F1, Table 12) was 4.21 µM. The IC50 ([4]; Tables 11-13, read-out: IC50 (average of all seven cell lines)) was 1 to 50 µM.

For COc1cc(C(=O)c2c[nH]c(-c3ccc(OCc4ccccc4)cc3)n2)cc(OC)c1OC [12ja, (2-(4-(benzyloxy)phenyl)-1H-imidazol-4-yl)(3,4,5-trimethoxyphenyl)methanone], the IC50 ([1]; Homo sapiens, WM164, Table 12) was 5.5 µM, the IC50 [2, 9] was 10 µM and the IC50 ([3]; Mus musculus, B16-F1, Table 12) was 10 µM. The IC50 ([5]; Homo sapiens, A-375, Table 12) was 5.2 µM.

O=C(c1ccc(F)cc1)c1c[nH]c(-c2ccc(OCc3ccccc3)cc2)n1 [12jb, (2-(4-(benzyloxy)phenyl)-1H-imidazol-4-yl)(4-fluorophenyl)methanone] showed an IC50 ([1]; Homo sapiens, WM164, Table 12) of 0.09 ± 0.012 µM, an IC50 [2, 9] of 0.079 ± 0.0004 µM and an IC50 ([3]; Mus musculus, B16-F1, Table 12) of 0.117 ± 0.016 µM. The “increase in activity compared with 12kb” value ([4]; 12jb vs para-hydroxy compound 12kb) was 440 fold and the IC50 ([5]; Homo sapiens, A-375, Table 12) was 0.093 ± 0.008 µM.

COc1cc(C(=O)c2c[nH]c(-c3ccc(O)cc3)n2)cc(OC)c1OC [12ka, (2-(4-hydroxyphenyl)-1H-imidazol-4-yl)(3,4,5-trimethoxyphenyl)methanone] was tested, and the IC50 ([1]; Homo sapiens, WM164, Table 12) was 1.8 µM, the IC50 ([3]; Mus musculus, B16-F1, Table 12) was 2.4 µM and the IC50 ([5]; Homo sapiens, A-375, Table 12) was 1.6 µM.

O=C(c1ccc(F)cc1)c1c[nH]c(-c2ccc(O)cc2)n1 [12kb] showed an IC50 ([1]; Table 12) greater than 10 µM, an IC50 ([2]; read-out: IC50 ± SEM, PC-3, Table 12) greater than 10 µM and an IC50 ([6]; Table 12, read-out: IC50 ± SEM, PPC-1 (converted)) greater than 10 µM. It also gave an IC50 ([3]; Table 12) greater than 10 µM, an IC50 ([7]; Table 12, read-out: IC50 ± SEM, Du 145) greater than 10 µM and an IC50 ([5]; Table 12) of 10 µM. The IC50 ([8]; Table 12, read-out: IC50 ± SEM, LNCaP (converted)) was 10 µM.

O=C(c1cc(O)c(O)c(O)c1)c1c[nH]c(-c2ccc(Cl)cc2)n1 [13fa, (2-(4-chlorophenyl)-1H-imidazol-4-yl)(3,4,5-trihydroxyphenyl)methanone] was tested, and the IC50 ([1]; Homo sapiens, WM164, Table 12) was 2.1 µM, the IC50 [2, 9] was 10 µM and the IC50 ([3]; Mus musculus, B16-F1, Table 12) was 1.81 µM. For the same molecule, the IC50 ([5]; Homo sapiens, A-375, Table 12) was 3.9 µM.

O=C(c1cc(O)c(O)c(O)c1)c1c[nH]c(-c2ccc(O)c(O)c2)n1 [13ha] was tested, and the IC50 ([1]; Table 12) was greater than 10 µM, the IC50 ([3]; Table 12) was greater than 10 µM and the IC50 ([5]; Table 12) was greater than 10 µM.

COc1cc(C(=O)c2csc(-c3ccccc3)n2)cc(OC)c1OCCN1C(=O)c2ccccc2C1=O [compound 20] gave an IC50 ([1]; Homo sapiens, WM164, Table 6A) of 1.3 µM, an IC50 [2, 10] greater than 10 µM and an IC50 [6, 11] of 0.633 µM. The IC50 ([3]; Mus musculus, B16-F1, Table 6A) was 3.1 µM, the IC50 [7, 12] was 0.642 µM and the IC50 ([5]; Homo sapiens, A-375, Table 6A) was 2.3 µM. It also gave an IC50 [8, 13] of 1.45 µM.

For COc1ccc(C(=O)n2ccnc2-c2ccc(F)cc2)cc1 [compound 24], the IC50 ([1]; Table 6A) was greater than 10 µM and the IC50 ([8]; Table 6A, read-out: IC50 ± SEM, LNCaP (converted)) was greater than 10 µM.

Cc1ccc(-c2nc(C(=O)c3ccc(F)cc3)cn2C(=O)c2ccc(F)cc2)cc1 [compound 29] showed an IC50 [2, 10] greater than 10 µM, an IC50 [6, 11] greater than 10 µM and an IC50 [7, 12] greater than 10 µM. For the same molecule, the IC50 [8, 13] was 1.79 µM.

COc1cc(C(=O)c2cccc(-c3cc(OC)c(OC)c(OC)c3)c2)cc(OC)c1OC [compound 35] gave an IC50 ([2]; Homo sapiens, read-out: IC50 ± SEM, PC-3) of 40.1 µM, an IC50 ([6]; Homo sapiens, PPC-1, read-out: IC50 ± SEM, PPC-1) of 15 µM and an IC50 ([7]; Homo sapiens, DU-145, read-out: IC50 ± SEM, DU 145) of 21.9 µM. It also gave an IC50 ([8]; Homo sapiens, LNCaP, read-out: IC50 ± SEM, LNCaP) of 1.5 µM.

Work on COc1cc(-c2cccc(CO)c2)cc(OC)c1OC [compound 39] yielded an IC50 [2, 10] of 32.5 µM, an IC50 [6, 11] of 21.4 µM and an IC50 [7, 12] of 16.8 µM. For the same molecule, the IC50 [8, 13] was 4.3 µM.
